The text below walks through data of ChEMBL document CHEMBL5131547, “Novel Halomethylketone Azadipeptides for Treating COVID-19” (ACS Med Chem Lett, 2022).

The assay deals with Replicase polyprotein 1ab (Severe acute respiratory syndrome coronavirus 2, UniProt P0DTD1). The assay can be described thus: Inhibition of recombinant SARS-CoV-2 3CLpro expressed in Escherichia coli BL21 DE3 using FAM-KTSAVLQSGFRKMEK-TAMRA fluorogenic peptide as substrate preincubated for 1 hr followed by substrate addition measured after 30 mins by FRET assay.

SMILES strings stand for the structures.

Take `CC(C)C[C@H](NC(=O)OCc1ccccc1)C(=O)NN(CC1CCCNC1=O)C(=O)CCl` (some centres not stated): the 50% inhibitory concentration (IC50) – broadly, the concentration at which inhibition is half-maximal – amounted to 5 nM.

As to `CC(C)C[C@H](NC(=O)c1cc2ccccc2[nH]1)C(=O)NN(C[C@H]1CCNC1=O)C(=O)CCl`, the 50% inhibitory concentration (IC50) is 3 nM.
